Test results taken from PubChem BioAssay (NCI).
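48-hour exposure; five concentrations; linearly interpolated endpoints. GI50: concentration for 50% inhibition of growth. TGI: total growth inhibition.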

Key:
Experiment in all cases: NCI-60 cell line screen, 48 h
786-0 renal = system: 786-0 renal
A498 renal = system: A498 renal
A549 NSCLC = system: A549 NSCLC
ACHN renal = system: ACHN renal
BT-549 breast = system: BT-549 breast
CAKI-1 renal = system: CAKI-1 renal
CCRF-CEM leukemia = system: CCRF-CEM leukemia
COLO 205 colon = system: COLO 205 colon
DU-145 prostate = system: DU-145 prostate
EKVX NSCLC = system: EKVX NSCLC
HCC-2998 colon = system: HCC-2998 colon
HCT-116 colon = system: HCT-116 colon
HCT-15 colon = system: HCT-15 colon
HL-60(TB) leukemia = system: HL-60(TB) leukemia
HOP-62 NSCLC = system: HOP-62 NSCLC
HOP-92 NSCLC = system: HOP-92 NSCLC
HS 578T breast = system: HS 578T breast
HT29 colon = system: HT29 colon
IGROV1 ovarian = system: IGROV1 ovarian
K-562 leukemia = system: K-562 leukemia
KM12 colon = system: KM12 colon
LOX IMVI melanoma = system: LOX IMVI melanoma
M14 melanoma = system: M14 melanoma
MALME-3M melanoma = system: MALME-3M melanoma
MCF7 breast = system: MCF7 breast
MDA-MB-231 breast = system: MDA-MB-231 breast
MDA-MB-435 = system: MDA-MB-435
MDA-MB-468 breast = system: MDA-MB-468 breast
MOLT-4 leukemia = system: MOLT-4 leukemia
NCI-H226 lung = system: NCI-H226 lung
NCI-H23 lung = system: NCI-H23 lung
NCI-H460 lung = system: NCI-H460 lung
NCI-H522 lung = system: NCI-H522 lung
NCI/ADR-RES ovarian = system: NCI/ADR-RES ovarian
OVCAR-3 ovarian = system: OVCAR-3 ovarian
OVCAR-4 ovarian = system: OVCAR-4 ovarian
OVCAR-5 ovarian = system: OVCAR-5 ovarian
OVCAR-8 ovarian = system: OVCAR-8 ovarian
PC-3 prostate = system: PC-3 prostate
RPMI-8226 leukemia = system: RPMI-8226 leukemia
RXF 393 renal = system: RXF 393 renal
SF-268 CNS = system: SF-268 CNS
SF-295 CNS = system: SF-295 CNS
SF-539 CNS = system: SF-539 CNS
SK-MEL-2 melanoma = system: SK-MEL-2 melanoma
SK-MEL-28 melanoma = system: SK-MEL-28 melanoma
SK-MEL-5 melanoma = system: SK-MEL-5 melanoma
SK-OV-3 ovarian = system: SK-OV-3 ovarian
SN12C renal = system: SN12C renal
SNB-19 CNS = system: SNB-19 CNS
SNB-75 CNS = system: SNB-75 CNS
SR leukemia = system: SR leukemia
SW-620 colon = system: SW-620 colon
T-47D breast = system: T-47D breast
TK-10 renal = system: TK-10 renal
U251 CNS = system: U251 CNS
UACC-257 melanoma = system: UACC-257 melanoma
UACC-62 melanoma = system: UACC-62 melanoma
UO-31 renal = system: UO-31 renal

`O=C1NC(=NC23CC4CC(CC(C4)C2)C3)N/C1=C\c1ccc2ncoc2c1` was tested, and the GI50 (786-0 renal) was 434 nM, the TGI (786-0 renal) was greater than 100000 nM and the GI50 (A498 renal) was 312 nM. For the same compound, the TGI (A498 renal) was 919 nM, the GI50 (A549 NSCLC) was 283 nM and the TGI (A549 NSCLC) was greater than 100000 nM. The GI50 (ACHN renal) was 210 nM, the TGI (ACHN renal) was 5200 nM and the GI50 (BT-549 breast) was 160 nM. It also gave a TGI (BT-549 breast) of 1400 nM, a GI50 (CAKI-1 renal) of 391 nM and a TGI (CAKI-1 renal) greater than 100000 nM. For the same compound, the GI50 (CCRF-CEM leukemia) was 267 nM, the GI50 (COLO 205 colon) was 405 nM and the TGI (COLO 205 colon) was 5910 nM. For the same compound, the GI50 (DU-145 prostate) was 315 nM, the TGI (DU-145 prostate) was greater than 100000 nM and the GI50 (EKVX NSCLC) was 469 nM. It also gave a TGI (EKVX NSCLC) of 4560 nM, a GI50 (HCC-2998 colon) of 588 nM and a TGI (HCC-2998 colon) of 7530 nM. The GI50 (HCT-116 colon) was 99.3 nM, the TGI (HCT-116 colon) was greater than 100000 nM and the GI50 (HCT-15 colon) was 240 nM. The TGI (HCT-15 colon) was greater than 100000 nM, the GI50 (HL-60(TB) leukemia) was 308 nM and the TGI (HL-60(TB) leukemia) was 2290 nM. For the same compound, the GI50 (HOP-62 NSCLC) was 413 nM, the TGI (HOP-62 NSCLC) was greater than 100000 nM and the GI50 (HOP-92 NSCLC) was 511 nM. For the same compound, the TGI (HOP-92 NSCLC) was greater than 91700 nM, the GI50 (HS 578T breast) was 412 nM and the TGI (HS 578T breast) was 4200 nM. It also gave a GI50 (HT29 colon) of 1520 nM, a TGI (HT29 colon) greater than 100000 nM and a GI50 (IGROV1 ovarian) of 430 nM. For the same compound, the TGI (IGROV1 ovarian) was greater than 44800 nM, the GI50 (K-562 leukemia) was 589 nM and the TGI (K-562 leukemia) was greater than 100000 nM. For the same compound, the GI50 (KM12 colon) was 342 nM, the TGI (KM12 colon) was greater than 76000 nM and the GI50 (LOX IMVI melanoma) was 239 nM. It also gave a TGI (LOX IMVI melanoma) greater than 100000 nM, a GI50 (M14 melanoma) of 325 nM and a TGI (M14 melanoma) greater than 100000 nM. For the same compound, the GI50 (MALME-3M melanoma) was 952 nM, the TGI (MALME-3M melanoma) was 3710 nM and the GI50 (MCF7 breast) was 324 nM. The TGI (MCF7 breast) was greater than 100000 nM, the GI50 (MDA-MB-231 breast) was 369 nM and the TGI (MDA-MB-231 breast) was 8050 nM. For the same compound, the GI50 (MDA-MB-435) was 613 nM, the TGI (MDA-MB-435) was greater than 100000 nM and the GI50 (MDA-MB-468 breast) was 169 nM. It also gave a TGI (MDA-MB-468 breast) of 548 nM, a GI50 (MOLT-4 leukemia) of 281 nM and a TGI (MOLT-4 leukemia) greater than 100000 nM. It also gave a GI50 (NCI-H226 lung) of 475 nM, a TGI (NCI-H226 lung) greater than 100000 nM and a GI50 (NCI-H23 lung) of 217 nM. For the same compound, the TGI (NCI-H23 lung) was 1510 nM, the GI50 (NCI-H460 lung) was 385 nM and the TGI (NCI-H460 lung) was greater than 55500 nM. For the same compound, the GI50 (NCI-H522 lung) was 230 nM, the TGI (NCI-H522 lung) was 5630 nM and the GI50 (NCI/ADR-RES ovarian) was 253 nM. It also gave a TGI (NCI/ADR-RES ovarian) of 1210 nM, a GI50 (OVCAR-3 ovarian) of 243 nM and a TGI (OVCAR-3 ovarian) greater than 84300 nM. For the same compound, the GI50 (OVCAR-4 ovarian) was 902 nM, the TGI (OVCAR-4 ovarian) was greater than 43300 nM and the GI50 (OVCAR-5 ovarian) was 322 nM. The TGI (OVCAR-5 ovarian) was greater than 100000 nM, the GI50 (OVCAR-8 ovarian) was 293 nM and the TGI (OVCAR-8 ovarian) was greater than 100000 nM. For the same compound, the GI50 (PC-3 prostate) was 338 nM, the TGI (PC-3 prostate) was greater than 100000 nM and the GI50 (RPMI-8226 leukemia) was 279 nM. The TGI (RPMI-8226 leukemia) was 28500 nM, the GI50 (RXF 393 renal) was 215 nM and the TGI (RXF 393 renal) was 477 nM. The GI50 (SF-268 CNS) was 412 nM, the TGI (SF-268 CNS) was 12800 nM and the GI50 (SF-295 CNS) was 487 nM. For the same compound, the TGI (SF-295 CNS) was greater than 100000 nM, the GI50 (SF-539 CNS) was 103 nM and the TGI (SF-539 CNS) was 474 nM. For the same compound, the GI50 (SK-MEL-2 melanoma) was 500 nM, the TGI (SK-MEL-2 melanoma) was 1320 nM and the GI50 (SK-MEL-28 melanoma) was 333 nM. For the same compound, the TGI (SK-MEL-28 melanoma) was 1830 nM, the GI50 (SK-MEL-5 melanoma) was 144 nM and the TGI (SK-MEL-5 melanoma) was 5650 nM. It also gave a GI50 (SK-OV-3 ovarian) of 4040 nM, a TGI (SK-OV-3 ovarian) greater than 100000 nM and a GI50 (SN12C renal) of 254 nM. The TGI (SN12C renal) was greater than 100000 nM, the GI50 (SNB-19 CNS) was 319 nM and the TGI (SNB-19 CNS) was greater than 100000 nM. The GI50 (SNB-75 CNS) was 280 nM, the TGI (SNB-75 CNS) was 1400 nM and the GI50 (SR leukemia) was 45.1 nM. It also gave a TGI (SR leukemia) of 2480 nM, a GI50 (SW-620 colon) of 318 nM and a TGI (SW-620 colon) greater than 100000 nM. The GI50 (T-47D breast) was 427 nM, the TGI (T-47D breast) was greater than 100000 nM and the GI50 (TK-10 renal) was 737 nM. For the same compound, the TGI (TK-10 renal) was greater than 100000 nM, the GI50 (U251 CNS) was 303 nM and the TGI (U251 CNS) was greater than 100000 nM. The GI50 (UACC-257 melanoma) was 863 nM, the TGI (UACC-257 melanoma) was greater than 34400 nM and the GI50 (UACC-62 melanoma) was 347 nM. For the same compound, the TGI (UACC-62 melanoma) was 1390 nM and the GI50 (UO-31 renal) was 358 nM.
